{
  "source": "patent US6379649B1",
  "about": "“Imidazo(1,2-a)pyridines as peripheral benzodiazepine receptor binding agents” (Australian Nuclear Science & Technology Organisation, priority 1998, dated 2002)",
  "key": {"[1]": {"biological_target": "T1, peripheral benzodiazepine receptor (Rattus norvegicus, UniProt P16257)", "assay": "Pretreatment (blocking) of uptake of radiolabelled compounds in rats", "format": "in vivo", "parameters": "high uptake in the tissues which have known PBR sites; from tissue; host or cells: living rats; organs with PBR sites", "settings": "pretreatment with unlabelled substance (1 mg/kg)"}, "[2]": {"biological_target": "T1, peripheral benzodiazepine receptor", "assay": "In vitro binding assay for peripheral benzodiazepine receptors ([^3H]-PK11195, rat kidney membranes)", "parameters": "diluted kidney membrane preparation; from tissue; host or cells: rat kidney membranes (Sprague Dawley)", "method": "In Vitro Binding Assays for Peripheral Benzodiazepine Receptors\nMale Sprague Dawley rats are sacrificed by CO2 administration followed by cervical dislocation. Kidneys are removed and placed in 20 volumes of ice-cold buffer ([…] Tris-HCl, pH 7.4) and minced finely with scissors. After homogenising the preparation with a polytron (PCU Kintematica, Bioblock, Switzerland) with one 10-second burst at a setting of 10, the suspension is centrifuged at 49,000 g for 15 minutes at 4° C. The pellets are resuspended in the previous buffer with a dounce (manual homogeniser) to yield an appropriate protein concentration. Protein measurements are made by Lowry's method using bovine serum albumin as standard.\n(§1) Non-specific binding is determined by blocking with cold PK11195 (10 μM). Incubation is terminated by rapid filtration through Whatman GF/B glass fiber. Each sample tube and filter is immediately washed with 3 aliquots of 5 mL ice-cold […] Tris/HCl at pH 7.4. Filters are counted with a β-scintillation counter (Packard) to measure the amount of bound radioactivity. Ki and IC50 are calculated by EBDA/Ligand, iterative non-linear least squares curve-fitting programs."}, "[3]": {"biological_target": "central benzodiazepine receptor", "assay": "In vitro binding assay for central benzodiazepine receptors ([^3H]-Ro 15-1788, rat cortex membranes)", "settings": "rat cortex membrane / rat brain homogenates, [^3H]-Ro 15-1788 2 nM, 25° C., 45 minutes; read-out: IC50 (nM) CBR", "method": "In Vitro Binding Assays for Central Benzodiazepine Receptors\nMale Sprague Dawley rats are sacrificed by CO2 administration followed by cervical dislocation. Cortex is removed and placed in 20 volumes of ice-cold buffer ([…] Tris-HCl, pH 7.4) and minced finely with scissors. After homogenising the preparation will a polytron (PCU Kinematica, Bioblock, Switzerland) with one 10-second burst at a setting of 6, the suspension is centrifuged at 20,000 g for 20 minutes at 4° C. The pellets are resuspended in the previous buffer with a dounce (manual homogeniser). After the second centrifugation, the pellet is suspended in a final buffer (50 nM Tris/HCl, 0.32M sucrose, pH 7.4) to yield an appropriate protein concentration. Protein measurements are made by Lowry's method using bovine serum albumin as standard.\nas §1, with “Flumazenil (20” for “PK11195 (10”, “programs (G. A. McPherson, J. Pharmacol. Methods 14, 213-228 (1985)).” for “programs.”"}},
  "data": [
    {"smiles": "CCOC(=O)c1ncn2c1CN(C)C(=O)c1cc(F)ccc1-2", "note": "[Flumazenil]", "values": [
      {"measurement": "effect of pretreatment on uptake of activity of the radiolabelled compounds in the tissues of interest", "setting": "[1]", "value": "only marginally"}
    ]},
    {"smiles": "CN1C(=O)CN=C(c2ccccc2)c2cc(Cl)ccc21", "note": "[Diazepam]", "values": [
      {"measurement": "effect of pretreatment on uptake of activity of the radiolabelled compounds in the tissues of interest", "setting": "[1]", "value": "only marginally"}
    ]},
    {"smiles": "CCC(C)N(C)C(=O)c1cc2ccccc2c(-c2ccccc2Cl)n1", "note": "(stereo not drawn) [PK 11195, 1-(2-chlorophenyl)-N-methyl-N-(1-methylpropyl)-3-isoquinolinecarboxamide]", "values": [
      {"measurement": "effect of pretreatment on uptake of activity of the radiolabelled compounds in the tissues of interest", "setting": "[1]", "value": "significantly reduced"}
    ]},
    {"smiles": "CNC(=O)Cc1c(-c2ccc(I)cc2)nc2ccc(Cl)cn12", "note": "[Example 1, 6-chloro-2-(4′-iodophenyl)-imidazol[1,2-a]pyridine-3-(N-methyl)acetamide]", "values": [
      {"measurement": "IC50", "setting": "[2]", "value": 0.99, "unit": "nM"},
      {"measurement": "melting point", "value": "308 to 310", "unit": "°C"},
      {"measurement": "IC50", "setting": "[3]", "value": "> 1000", "unit": "nM"}
    ]}
  ]
}
